# Where two headings read alike, the source gives them in different places.
# Target: T1, LRT (GST-tagged N-terminal LRT domain of BteA) (Bordetella pertussis, UniProt Q7VSD3)
# T1 construct: gene BP0500; N-terminal lipid raft targeting (membrane localization) domain, aa 1-130 of 656; N-terminal GST tag (pGEX-6P1) kept; E. coli Rosetta 2
# Assay: SPR steady state, immobilized liposomes
# Format: binding
# T1 sequence (Q7VSD3 entry or part of it): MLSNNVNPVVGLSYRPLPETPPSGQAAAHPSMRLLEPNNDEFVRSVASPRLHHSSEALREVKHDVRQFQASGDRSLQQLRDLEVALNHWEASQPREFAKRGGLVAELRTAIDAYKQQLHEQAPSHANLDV
structure (smiles),measurement,setting,value
CCCCCCCC/C=C\CCCCCCCC(=O)O[C@H](COC(=O)CCCCCCCCCCCCCCC)COP(=O)(O)O [PA],Kd,"read-out: KD (apparent), PA/PC 5:95 (mol) liposomes, 100 nm, 50 mM Tris-HCl pH 7.4, 150 mM NaCl, 0.005% Tween-20, 25 °C, Kd in terms of protein concentration",492 ± 86 nM
CCCCCCCC/C=C\CCCCCCCC(=O)OC[C@H](COP(=O)(O)O[C@@H]1[C@H](O)[C@H](O)[C@@H](OP(=O)(O)O)[C@H](OP(=O)(O)O)[C@H]1O)OC(=O)CCCCCCC/C=C\CCCCCCCC [PIP2],Kd,,446 ± 65 nM
CCCCCCCC/C=C\CCCCCCCC(=O)O[C@H](COC(=O)CCCCCCCCCCCCCCC)COP(=O)(O)OC[C@H](N)C(=O)O [PS],Kd,"read-out: KD (apparent), PS/PC 20:80 (mol) liposomes, 100 nm, 50 mM Tris-HCl pH 7.4, 150 mM NaCl, 0.005% Tween-20, 25 °C, Kd in terms of protein concentration, unit nM shared in the sentence, abstract gives ∼1.2 μM",1230 ± 245 nM

# From PMC8100071, “Lipid binding by the N-terminal motif mediates plasma membrane localization of Bordetella effector protein BteA” (The Journal of Biological Chemistry, 2021)
